Data on one substance can be found in US20250345391A1, “COMPOSITIONS AND METHODS FOR THE TREATMENT OF SEPSIS” (Children's Hospital Medical Center, priority 2022, published 2025).

The test relates to polymicrobial sepsis by cecal ligation and puncture (CLP). The test can be described thus: Long-term studies of severity of sepsis (survival, severity score, body weight) up to 7 days after CLP. It counts as in vivo, Male C57BL/6 mice. The source says:
The investigation conformed to the National Institutes of Health Guide for the Care and Use of Laboratory Animals (Eighth Edition, 2011) and was approved by the Institutional Animal Care and Use Committee of the Cincinnati Children's Hospital Medical Center. Male C57BL/6 mice were obtained from Charles River Laboratories International, Inc. (Wilmington, MA). Mice were used at 3-5 months of age to mimic the equivalent for human ranges from 20-25 years (29). Male mice only were chosen for the experimentation to avoid interference from female hormonal fluctuations in sepsis responses during the estrous cycle. Mice were housed in pathogen-free conditions under a 10-h light/14-h dark cycle with free access to food and water. Mice were anesthetized with 2.0% isoflurane in 50% oxygen and polymicrobial sepsis was induced by cecal ligation and puncture (CLP) (30). After a midline laparotomy, the cecum was exteriorized, ligated and punctured twice with a 23-G needle. The cecum was then returned into the peritoneal cavity and the abdominal incision was closed. After the procedure, mice were randomly assigned to three treatment groups: a vehicle-treated group received distilled water (200 μl/mouse) intraperitoneally (i.p.); a 100 μg colivelin-treated group received the colivelin at 100 μg/kg i.p., and a 200 μg colivelin-treated group received the colivelin at 200 μg/kg i.p. at 1 h after CLP. The intraperitoneal injection was chosen to allow for a rapid uptake and bioavailability of the peptide. All groups of mice also received fluid resuscitation (35 ml/kg normal saline solution subcutaneously) immediately after, at 3 h and 12 h after the CLP procedure. To minimize pain at the surgical incision site, lidocaine hydrochloride (1%, 4 mg/kg total dose) was applied locally immediately after the procedure. […] Mice were then sacrificed at 0, 6 and 18 h after CLP. Blood, lungs, kidneys, liver, and thoracic aortas were collected for biochemical assays.
In a separate study, another cohort of mice was subjected to the CLP procedure and was used for assessing health and moribundity conditions, and survival rate up to 7 days. Mice were divided into two treatment groups in a blind and random fashion: a vehicle-treated group received distilled water (200 μl/mouse), and a colivelin-treated group received colivelin (100 μg/kg subcutaneously) at 1 h, 3 h and 24 h after the CLP procedure. Twelve animals were included for each group. One animal was sacrificed because of unintentional extensive damage in the small intestine during surgical procedure and was excluded from the study. The subcutaneous injection was chosen to avoid further stress in the peritoneum since the animals also received intraperitoneal treatment of antibiotics. To mimic the clinical management of antimicrobial coverage, all mice received ceftriaxone (25 mg/kg) and metronidazole (12.5 mg/kg) intraperitoneally every 12 h after CLP for three days. To minimize pain, buprenorphine (0.05 mg/kg) was administered subcutaneously at 1 h after surgery and every 12 h for three days after surgery. All groups of mice also received fluid resuscitation (35 ml/kg normal saline with 5% dextrose subcutaneously) every 24 h for all the duration of the experimental period. Although some spontaneous death occurred given the acute severity of the disease, spontaneous death was not considered as endpoint for this study for ethical reasons. […]

Turning to Colivelin (SALLRSIPAPAGASRLLLLTGEIDLP), the “Health of survivor mice (severity score) at 6 and 7 days” value (6 and 7 days after CLP, survivor mice, colivelin 100 μg/kg s.c., vs survivor vehicle-treated mice) is given as “significantly healthier”. The “Mice survived at 7 days” value (7 days after CLP, colivelin 100 μg/kg s.c. at 1 h, 3 h and 24 h, with antibiotics and fluids, vehicle 6 out of 12) is reported as 8 out of 11. This substance also had a Survival rate (7 days after CLP, colivelin 100 μg/kg s.c. at 1 h, 3 h and 24 h, with antibiotics and fluids, vehicle 50%, not significant) of 72.6%. Where the note is “later than two days, up to 7 days after CLP, colivelin 100 μg/kg s.c., vs vehicle”, the “Body weight, later time points” value is reported as “vehicle-treated mice maintained a significant lower weight than colivelin-treated mice”. Also, the “Severity of signs of sepsis (severity score), all the observation period” value (up to 7 days after CLP, colivelin 100 μg/kg s.c. at 1 h, 3 h and 24 h, with antibiotics and fluids, vs vehicle) is listed as “less severe signs of sepsis”.
